The source made the active and inactive calls. The rule behind the calls is not given here. Where a SMILES comes first, the peptide text is derived from it. The star is where a group is joined. For = O=C*

We go through four molecules from PubChem BioAssay AID1259407 (Chemical Carcinogenesis Research Information System (CCRIS), 2018).

In this data set the test system is CCRIS mutagenicity, Ames/micronucleus/aberration tests. As to the kind of experiment: CCRIS mutagenicity studies.
Setting [1] is: Test System: AMES SALMONELLA TYPHIMURIUM, Strain/Indicator: TA97, Metabolic Activation: HAMSTER, LIVER, S-9, AROCLOR 1254 (10%), Method: PREINCUBATION
The mark [2] stands for this setting: Test System: AMES SALMONELLA TYPHIMURIUM, Strain/Indicator: TA97, Metabolic Activation: NONE, Method: PREINCUBATION
[3] abbreviates: Test System: AMES SALMONELLA TYPHIMURIUM, Strain/Indicator: TA97, Metabolic Activation: RAT, LIVER, S-9, AROCLOR 1254 (10%), Method: PREINCUBATION
The mark [4] stands for this setting: Test System: AMES SALMONELLA TYPHIMURIUM, Strain/Indicator: TA98, Metabolic Activation: HAMSTER, LIVER, S-9, AROCLOR 1254 (10%), Method: PREINCUBATION
[5] abbreviates: Test System: AMES SALMONELLA TYPHIMURIUM, Strain/Indicator: TA98, Metabolic Activation: NONE, Method: PREINCUBATION
Where [6] appears, read: Test System: AMES SALMONELLA TYPHIMURIUM, Strain/Indicator: TA100, Metabolic Activation: HAMSTER, LIVER, S-9, AROCLOR 1254 (10%), Method: PREINCUBATION
Where [7] appears, read: Test System: AMES SALMONELLA TYPHIMURIUM, Strain/Indicator: TA100, Metabolic Activation: NONE, Method: PREINCUBATION
Where [8] appears, read: Test System: AMES SALMONELLA TYPHIMURIUM, Strain/Indicator: TA100, Metabolic Activation: RAT, LIVER, S-9, AROCLOR 1254 (10%), Method: PREINCUBATION
Setting [9] is: Test System: AMES SALMONELLA TYPHIMURIUM, Strain/Indicator: TA1535, Metabolic Activation: HAMSTER, LIVER, S-9, AROCLOR 1254 (10%), Method: PREINCUBATION
Where [10] appears, read: Test System: AMES SALMONELLA TYPHIMURIUM, Strain/Indicator: TA1535, Metabolic Activation: NONE, Method: PREINCUBATION
[11] abbreviates: Test System: AMES SALMONELLA TYPHIMURIUM, Strain/Indicator: TA1535, Metabolic Activation: RAT, LIVER, S-9, AROCLOR 1254 (10%), Method: PREINCUBATION
Setting [12] is: Test System: MOUSE LYMPHOMA, Strain/Indicator: L5178Y (TK+/TK-), Metabolic Activation: NONE, Method: SUSPENSION/PLATE.
The mark [13] stands for this setting: Test System: AMES SALMONELLA TYPHIMURIUM, Strain/Indicator: TA100, Metabolic Activation: RAT, LIVER, S-9, AROCLOR 1254, Method: STANDARD PLATE.

Regarding `ClCC(Cl)CCl`, the mutagenic call is, setting by setting: (End Point: IN VITRO CHROMOSOMAL ABERRATIONS, Test System: CHL CELLS, Metabolic Activation: NONE) “inactive; negative”; (End Point: IN VITRO CHROMOSOMAL ABERRATIONS, Test System: CHL CELLS, Metabolic Activation: RAT, LIVER, S-9, SODIUM PHENOBARBITAL AND 5,6-BENZOFLAVONE) “active; positive (structural changes)”; under setting [1], “active; positive”; under setting [2], “inactive; negative”; under setting [3], “active; positive”; under setting [4], “active; positive”. Moreover, the mutagenic call (Test System: AMES SALMONELLA TYPHIMURIUM, Strain/Indicator: TA98, Metabolic Activation: HAMSTER, LIVER, S-9, AROCLOR 1254, Method: PREINCUBATION) was “inactive; negative”; the mutagenic call under setting [5] is “inactive; negative”; the mutagenic call (Test System: AMES SALMONELLA TYPHIMURIUM, Strain/Indicator: TA98, Metabolic Activation: RAT, LIVER, S-9, AROCLOR 1254, Method: PREINCUBATION) was “inactive; negative”; the mutagenic call under setting [6] was “active; positive”; the mutagenic call (Test System: AMES SALMONELLA TYPHIMURIUM, Strain/Indicator: TA100, Metabolic Activation: HAMSTER, LIVER, S-9, AROCLOR 1254, Method: PREINCUBATION) was “active; positive”; the mutagenic call under setting [7] was “inactive; negative”. Moreover, the mutagenic call runs as follows: (Test System: AMES SALMONELLA TYPHIMURIUM, Strain/Indicator: TA100, Metabolic Activation: RAT, LIVER, MICROSOMES, PHENOBARBITAL, NADPH COFACTORS, Method: STANDARD PLATE) “active; positive”; (Test System: AMES SALMONELLA TYPHIMURIUM, Strain/Indicator: TA100, Metabolic Activation: RAT, LIVER, MICROSOMES, PHENOBARBITAL, Method: STANDARD PLATE) “inactive; negative”; under setting [8], “active; positive”; (Test System: AMES SALMONELLA TYPHIMURIUM, Strain/Indicator: TA100, Metabolic Activation: RAT, LIVER, S-9, AROCLOR 1254, Method: PREINCUBATION) “active; positive”; under setting [9], “active; positive”; (Test System: AMES SALMONELLA TYPHIMURIUM, Strain/Indicator: TA1535, Metabolic Activation: HAMSTER, LIVER, S-9, AROCLOR 1254, Method: PREINCUBATION) “active; positive”. Besides, the mutagenic call under setting [10] was “inactive; negative”; the mutagenic call under setting [11] was “active; positive”; the mutagenic call (Test System: AMES SALMONELLA TYPHIMURIUM, Strain/Indicator: TA1535, Metabolic Activation: RAT, LIVER, S-9, AROCLOR 1254, Method: PREINCUBATION) is “active; positive”; the mutagenic call (Test System: AMES SALMONELLA TYPHIMURIUM, Strain/Indicator: TA1537, Metabolic Activation: HAMSTER, LIVER, S-9, AROCLOR 1254 (10%), Method: PREINCUBATION) is “inactive; negative”; the mutagenic call (Test System: AMES SALMONELLA TYPHIMURIUM, Strain/Indicator: TA1537, Metabolic Activation: NONE, Method: PREINCUBATION) is “inactive; negative”; the mutagenic call (Test System: AMES SALMONELLA TYPHIMURIUM, Strain/Indicator: TA1537, Metabolic Activation: RAT, LIVER, S-9, AROCLOR 1254 (10%), Method: PREINCUBATION) is “inactive; negative”. The mutagenic call is, setting by setting: (Test System: AMES SALMONELLA TYPHIMURIUM, Strain/Indicator: TA1537, Metabolic Activation: RAT, LIVER, S-9, AROCLOR 1254, Method: PREINCUBATION) “inactive; negative”; under setting [12], “inactive; negative”; (Test System: MOUSE LYMPHOMA, Strain/Indicator: L5178Y (TK+/TK-), Metabolic Activation: RAT, LIVER, S-9, AROCLOR 1254, Method: SUSPENSION/PLATE) “active; positive”.
With `CSCC[C@H](NC=O)C(=O)N[C@@H](Cc1ccccc1)C(=O)O` (For-Met-Phe-OH), the mutagenic call is, setting by setting: (Test System: AMES SALMONELLA TYPHIMURIUM, Strain/Indicator: TA98, Metabolic Activation: NONE, Method: STANDARD PLATE) “inactive; negative”; (Test System: AMES SALMONELLA TYPHIMURIUM, Strain/Indicator: TA98, Metabolic Activation: RAT, LIVER, S-9, AROCLOR 1254, Method: STANDARD PLATE) “inactive; negative”; (Test System: AMES SALMONELLA TYPHIMURIUM, Strain/Indicator: TA100, Metabolic Activation: NONE, Method: STANDARD PLATE) “inactive; negative”; under setting [13], “inactive; negative”; (Test System: AMES SALMONELLA TYPHIMURIUM, Strain/Indicator: TA1535, Metabolic Activation: NONE, Method: STANDARD PLATE) “inactive; negative”; (Test System: AMES SALMONELLA TYPHIMURIUM, Strain/Indicator: TA1535, Metabolic Activation: RAT, LIVER, S-9, AROCLOR 1254, Method: STANDARD PLATE) “inactive; negative”. Moreover, the mutagenic call runs as follows: (Test System: AMES SALMONELLA TYPHIMURIUM, Strain/Indicator: TA1537, Metabolic Activation: NONE, Method: STANDARD PLATE) “inactive; negative”; (Test System: AMES SALMONELLA TYPHIMURIUM, Strain/Indicator: TA1537, Metabolic Activation: RAT, LIVER, S-9, AROCLOR 1254, Method: STANDARD PLATE) “inactive; negative”.
As for `COc1ccc(C(=O)/C(Br)=C\C(=O)O)cc1`, the mutagenic call is “active; positive” (End Point: IN VITRO CHROMOSOMAL ABERRATIONS, Test System: CHO CELLS, Metabolic Activation: NONE); “active; positive” (End Point: IN VITRO CHROMOSOMAL ABERRATIONS, Test System: CHO CELLS, Metabolic Activation: RAT, LIVER, S-9, AROCLOR 1254); “active; positive” under setting [1]; “active; positive” under setting [2]; “active; positive” under setting [3]; “active; positive” under setting [4]. Also, the mutagenic call by setting is: under setting [5], “active; positive”; (Test System: AMES SALMONELLA TYPHIMURIUM, Strain/Indicator: TA98, Metabolic Activation: RAT, LIVER, S-9, AROCLOR 1254 (10%), Method: PREINCUBATION) “active; positive”; under setting [6], “active; positive”; under setting [7], “active; positive”; under setting [8], “active; positive”; under setting [9], “active; positive”. Besides, the mutagenic call is, setting by setting: under setting [10], “inactive; negative”; under setting [11], “active; positive”; under setting [12], “active; positive”; (Test System: UDS RODENT HEPATOCYTES, Strain/Indicator: THY INCORP (NON-S-PHASE), Metabolic Activation: 3-METHYLCHOLANTHRENE, Method: AUTORADIOGRAPHY) “active; positive”; (Test System: UDS RODENT HEPATOCYTES, Strain/Indicator: THY INCORP (NON-S-PHASE), Metabolic Activation: AROCLOR, Method: AUTORADIOGRAPHY) “active; positive”; (Test System: UDS RODENT HEPATOCYTES, Strain/Indicator: THY INCORP (NON-S-PHASE), Metabolic Activation: NONE, Method: AUTORADIOGRAPHY) “inactive; negative”.
As for `C=CCn1cc2c3c(cccc31)[C@H]1C=C(CO)CN(C)[C@@H]1C2`, the mutagenic call under setting [13] was “active; positive”.
